Where two headings read alike, the source gives them in different places. Residues, ends and D or L forms follow the SMILES beside them.
Tests used:
[1] = system: K. pneumonia (ATCC 13884); type: cell-based, Klebsiella pneumoniae
E. coli (ATCC 25922) = type: cell-based, Escherichia coli
Procedure: (§1) The antimicrobial activities of HBc ARD peptides were tested using a number of bacterial strains from ATCC, including Pseudomonas aeruginosa Migula strain (ATCC 27853, ampicillin-resistant), Pseudomonas aeruginosa Migula strain (ATCC 9027, ampicillin-resistant), Klebsiella pneumoniae strain (ATCC 17593), Escherichia coli strain (ATCC 25922), Staphylococcus aureus subsp. strain (ATCC 25923, methicillin-resistant), Staphylococcus aureus subsp. strain (ATCC 29213, methicillin-resistant), Staphylococcus aureus subsp. strain (ATCC 19636, methicillinresistant), and Candida albicans strain (ATCC 10231).
(§2) All peptides were purchased from Yao-Hong Biotechnology Inc. (Taipei, Taiwan). Vendors provided data of peptide characterizations, including HPLC and Mass (data not shown). Antimicrobial activity was determined as described with some modifications as detailed below. Bacteria were grown overnight in Mueller–Hinton broth (Difco) at 37°C, and during the mid-logarithmic phase, bacteria were diluted to 10^6 CFU (colony formation unit)/ml in phosphate buffer (10 mM sodium phosphate and 50 mM sodium chloride, pH 7.2). Peptides were serially diluted in the same buffer. Fifty microliter (µl) of bacteria was mixed with fifty µl of peptides at varying concentrations followed by incubation at 37°C for 3 hours without shaking. At the end of incubation, bacteria were placed on Mueller-Hinton broth agar plates, and allowed growth at 37°C overnight for measurement of minimal bactericidal concentration (MBC). […] All peptides were tested in triplicate.

[2] = system: P. aeruginosa (ATCC 9027); type: cell-based, Pseudomonas aeruginosa; conditions: for MBC against P. aeruginosa: summary over the P. aeruginosa strains of Table 1 (ATCC 9027, ATCC 27853)
Procedure: as §1, §2

[3] = system: P. aeruginosa (ATCC 27853); type: cell-based, Pseudomonas aeruginosa
Procedure: as §1, §2

S. aureus (ATCC 25923) = type: cell-based, Staphylococcus aureus
Procedure: as §1, §2

S. aureus (ATCC 29213) = type: cell-based, Staphylococcus aureus
Procedure: as §1, §2

S. aureus (ATCC 19636) = type: cell-based, Staphylococcus aureus
Procedure: as §1, §2

[4] = system: tested bacteria and fungi; type: cell-based; conditions: summary of Table 1
Procedure: as §1, §2

[5] = 3 h at 37°C in phosphate buffer pH 7.2, triplicate
[6] = ampicillin-resistant strain, 3 h at 37°C in phosphate buffer pH 7.2, triplicate
[7] = methicillin-resistant strain, 3 h at 37°C in phosphate buffer pH 7.2, triplicate

## CC(C)[C@H](NC(=O)[C@@H](NC(=O)[C@@H](N)[C@@H](C)O)C(C)C)C(=O)N[C@@H](CCCNC(=N)N)C(=O)N[C@@H](CCCNC(=N)N)C(=O)N[C@@H](CCCNC(=N)N)C(=O)NCC(=O)N[C@@H](CCCNC(=N)N)C(=O)N[C@@H](CO)C(=O)N1CCC[C@H]1C(=O)N[C@@H](CCCNC(=N)N)C(=O)N[C@@H](CCCNC(=N)N)C(=O)N[C@@H](CCCNC(=N)N)C(=O)N[C@H](C(=O)N1CCC[C@H]1C(=O)N[C@@H](CO)C(=O)N1CCC[C@H]1C(=O)N[C@@H](CCCNC(=N)N)C(=O)N[C@@H](CCCNC(=N)N)C(=O)N[C@@H](CCCNC(=N)N)C(=O)N[C@@H](CCCNC(=N)N)C(=O)O)[C@@H](C)O [HBc147-167] (H-TVVRRRGRSPRRRTPSPRRRR-OH; N-terminus and C-terminus assumed)
[1]; [5]
  Antimicrobial activity, MBC: 21.3 µg/mL
E. coli (ATCC 25922); [5]
  Antimicrobial activity, MBC: > 85 µg/mL
[2]; ATCC 9027, 3 h, pH 7.2
  Antimicrobial activity, MBC: > 32 µM
[2]; [6]
  Antimicrobial activity, MBC: > 85 µg/mL
[3]; ATCC 27853, 3 h, pH 7.2
  Antimicrobial activity, MBC: > 32 µM
[3]; [6]
  Antimicrobial activity, MBC: > 85 µg/mL

## CC(C)[C@H](NC(=O)[C@@H](NC(=O)[C@@H](N)[C@@H](C)O)C(C)C)C(=O)N[C@@H](CCCNC(=N)N)C(=O)N[C@@H](CCCNC(=N)N)C(=O)N[C@@H](CCCNC(=N)N)C(=O)NCC(=O)N[C@@H](CCCNC(=N)N)C(=O)N[C@@H](CO)C(=O)N1CCC[C@H]1C(=O)N[C@@H](CCCNC(=N)N)C(=O)N[C@@H](CCCNC(=N)N)C(=O)N[C@@H](CCCNC(=N)N)C(=O)N[C@H](C(=O)N1CCC[C@H]1C(=O)N[C@@H](CO)C(=O)N1CCC[C@H]1C(=O)N[C@@H](CCCNC(=N)N)C(=O)N[C@@H](CCCNC(=N)N)C(=O)N[C@@H](CCCNC(=N)N)C(=O)N[C@@H](CCCNC(=N)N)C(=O)N[C@@H](CO)C(=O)N[C@@H](CCC(N)=O)C(=O)N[C@@H](CO)C(=O)N1CCC[C@H]1C(=O)N[C@@H](CCCNC(=N)N)C(=O)N[C@@H](CCCNC(=N)N)C(=O)N[C@@H](CCCNC(=N)N)C(=O)N[C@@H](CCCNC(=N)N)C(=O)O)[C@@H](C)O [HBc147-175] (H-TVVRRRGRSPRRRTPSPRRRRSQSPRRRR-OH; N-terminus and C-terminus assumed)
S. aureus (ATCC 25923); ATCC 25923, 3 h, pH 7.2
  Antimicrobial activity, MBC: > 32 µM
S. aureus (ATCC 25923); [7]
  Antimicrobial activity, MBC: > 117.86 µg/mL
S. aureus (ATCC 29213); ATCC 29213, 3 h, pH 7.2
  Antimicrobial activity, MBC: > 32 µM
S. aureus (ATCC 29213); [7]
  Antimicrobial activity, MBC: > 117.86 µg/mL
S. aureus (ATCC 19636); ATCC 19636, 3 h, pH 7.2
  Antimicrobial activity, MBC: > 32 µM
S. aureus (ATCC 19636); [7]
  Antimicrobial activity, MBC: > 117.86 µg/mL
S. aureus (ATCC 19636); text summary over the S. aureus strains of Table 1 (ATCC 19636, 25923, 29213)
  MBC against S. aureus: lost the activity
[1]; [5]
  Antimicrobial activity, MBC: 3.68 µg/mL
[1]; ATCC 13884, 3 h, pH 7.2
  Antimicrobial activity, MBC: 1 µM
E. coli (ATCC 25922); [5]
  Antimicrobial activity, MBC: 3.68 µg/mL
E. coli (ATCC 25922); ATCC 25922, 3 h, pH 7.2
  Antimicrobial activity, MBC: 1 µM
[2]; ATCC 9027, 3 h, pH 7.2
  Antimicrobial activity, MBC: 0.5 µM
[2]; [6]
  Antimicrobial activity, MBC: 1.84 µg/mL
[3]; ATCC 27853, 3 h, pH 7.2
  Antimicrobial activity, MBC: 1 µM
[3]; [6]
  Antimicrobial activity, MBC: 3.68 µg/mL

## C[C@@H](O)[C@H](NC(=O)[C@H](CCCNC(=N)N)NC(=O)[C@H](CCCNC(=N)N)NC(=O)[C@H](CCCNC(=N)N)NC(=O)[C@@H]1CCCN1C(=O)[C@H](CO)NC(=O)[C@H](CCCNC(=N)N)NC(=O)CN)C(=O)N1CCC[C@H]1C(=O)N[C@@H](CO)C(=O)N1CCC[C@H]1C(=O)N[C@@H](CCCNC(=N)N)C(=O)N[C@@H](CCCNC(=N)N)C(=O)N[C@@H](CCCNC(=N)N)C(=O)N[C@@H](CCCNC(=N)N)C(=O)N[C@@H](CO)C(=O)N[C@@H](CCC(N)=O)C(=O)N[C@@H](CO)C(=O)N1CCC[C@H]1C(=O)N[C@@H](CCCNC(=N)N)C(=O)N[C@@H](CCCNC(=N)N)C(=O)N[C@@H](CCCNC(=N)N)C(=O)N[C@@H](CCCNC(=N)N)C(=O)O [HBc153-175] (H-GRSPRRRTPSPRRRRSQSPRRRR-OH; N-terminus and C-terminus assumed)
[1]; [5]
  Antimicrobial activity, MBC: 93.28 µg/mL
[1]; ATCC 13884, 3 h, pH 7.2
  Antimicrobial activity, MBC: > 32 µM
E. coli (ATCC 25922); [5]
  Antimicrobial activity, MBC: 46.64 µg/mL
[2]; ATCC 9027, 3 h, pH 7.2
  Antimicrobial activity, MBC: 2 µM
[2]; [6]
  Antimicrobial activity, MBC: 5.8 µg/mL
[2]
  MBC against P. aeruginosa: strong activity
[3]; ATCC 27853, 3 h, pH 7.2
  Antimicrobial activity, MBC: 2 µM
[3]; [6]
  Antimicrobial activity, MBC: 5.8 µg/mL

## C[C@@H](O)[C@H](NC(=O)[C@H](CCCNC(=N)N)NC(=O)[C@H](CCCNC(=N)N)NC(=O)[C@H](CCCNC(=N)N)NC(=O)[C@@H]1CCCN1C(=O)[C@@H](N)CO)C(=O)N1CCC[C@H]1C(=O)N[C@@H](CO)C(=O)N1CCC[C@H]1C(=O)N[C@@H](CCCNC(=N)N)C(=O)N[C@@H](CCCNC(=N)N)C(=O)N[C@@H](CCCNC(=N)N)C(=O)N[C@@H](CCCNC(=N)N)C(=O)N[C@@H](CO)C(=O)N[C@@H](CCC(N)=O)C(=O)N[C@@H](CO)C(=O)N1CCC[C@H]1C(=O)N[C@@H](CCCNC(=N)N)C(=O)N[C@@H](CCCNC(=N)N)C(=O)N[C@@H](CCCNC(=N)N)C(=O)N[C@@H](CCCNC(=N)N)C(=O)O [HBc155-175] (H-SPRRRTPSPRRRRSQSPRRRR-OH; N-terminus and C-terminus assumed)
[1]; [5]
  Antimicrobial activity, MBC: > 86.46 µg/mL
[1]; ATCC 13884, 3 h, pH 7.2
  Antimicrobial activity, MBC: > 32 µM
E. coli (ATCC 25922); [5]
  Antimicrobial activity, MBC: > 86.46 µg/mL
[2]; ATCC 9027, 3 h, pH 7.2
  Antimicrobial activity, MBC: 2 µM
[2]; [6]
  Antimicrobial activity, MBC: 5.4 µg/mL
[2]
  MBC against P. aeruginosa: strong activity
[3]; ATCC 27853, 3 h, pH 7.2
  Antimicrobial activity, MBC: 16 µM
[3]; [6]
  Antimicrobial activity, MBC: 43.23 µg/mL

## C[C@@H](O)[C@H](NC(=O)[C@H](CCCNC(=N)N)NC(=O)[C@H](CCCNC(=N)N)NC(=O)[C@@H](N)CCCNC(=N)N)C(=O)N1CCC[C@H]1C(=O)N[C@@H](CO)C(=O)N1CCC[C@H]1C(=O)N[C@@H](CCCNC(=N)N)C(=O)N[C@@H](CCCNC(=N)N)C(=O)N[C@@H](CCCNC(=N)N)C(=O)N[C@@H](CCCNC(=N)N)C(=O)N[C@@H](CO)C(=O)N[C@@H](CCC(N)=O)C(=O)N[C@@H](CO)C(=O)N1CCC[C@H]1C(=O)N[C@@H](CCCNC(=N)N)C(=O)N[C@@H](CCCNC(=N)N)C(=O)N[C@@H](CCCNC(=N)N)C(=O)N[C@@H](CCCNC(=N)N)C(=O)O [HBc157-175] (H-RRRTPSPRRRRSQSPRRRR-OH; N-terminus and C-terminus assumed)
[1]; [5]
  Antimicrobial activity, MBC: > 80.58 µg/mL
[1]; ATCC 13884, 3 h, pH 7.2
  Antimicrobial activity, MBC: > 32 µM
E. coli (ATCC 25922); [5]
  Antimicrobial activity, MBC: > 80.58 µg/mL
[2]; ATCC 9027, 3 h, pH 7.2
  Antimicrobial activity, MBC: 2 µM
[2]
  MBC against P. aeruginosa: strong activity
[3]; ATCC 27853, 3 h, pH 7.2
  Antimicrobial activity, MBC: > 32 µM
[3]; [6]
  Antimicrobial activity, MBC: > 80.58 µg/mL

## C[C@@H](O)[C@H](NC(=O)[C@H](CCCNC(=N)N)NC(=O)[C@H](CCCNC(=N)N)NC(=O)[C@@H](N)CCCNC(=N)N)C(=O)N1CCC[C@H]1C(=O)N[C@@H](CO)C(=O)N1CCC[C@H]1C(=O)N[C@@H](CCCNC(=N)N)C(=O)N[C@@H](CCCNC(=N)N)C(=O)N[C@@H](CCCNC(=N)N)C(=O)N[C@@H](CCCNC(=N)N)C(=O)N[C@@H](CO)C(=O)N[C@@H](CCC(N)=O)C(=O)N[C@@H](CO)C(=O)N1CCC[C@H]1C(=O)N[C@@H](CCCNC(=N)N)C(=O)N[C@@H](CCCNC(=N)N)C(=O)N[C@@H](CCCNC(=N)N)C(=O)N[C@@H](CCCNC(=N)N)C(=O)N[C@@H](CO)C(=O)O [HBc157-176] (H-RRRTPSPRRRRSQSPRRRRS-OH; N-terminus and C-terminus assumed)
[1]; [5]
  Antimicrobial activity, MBC: > 83.36 µg/mL
[1]; ATCC 13884, 3 h, pH 7.2
  Antimicrobial activity, MBC: > 32 µM
E. coli (ATCC 25922); [5]
  Antimicrobial activity, MBC: > 83.36 µg/mL
[2]; ATCC 9027, 3 h, pH 7.2
  Antimicrobial activity, MBC: 2 µM
[2]; [6]
  Antimicrobial activity, MBC: 5.2 µg/mL
[2]
  MBC against P. aeruginosa: strong activity
[3]; ATCC 27853, 3 h, pH 7.2
  Antimicrobial activity, MBC: 2 µM
[3]; [6]
  Antimicrobial activity, MBC: 5.2 µg/mL

## HBc147-159: HBc ARD peptide ARD I–II (TVVRRRGRSPRRR; UniProt P03147 147-159, looked up, fragment)
[4]
  Activity against all of the tested bacteria and fungi: no activity

## HBc162-175: HBc ARD peptide ARD III–IV (SPRRRRSQSPRRRR; UniProt P03147 162-175, looked up, fragment)
[4]
  Activity against all of the tested bacteria and fungi: no activity

## HBc164-176: HBc ARD peptide ARD III–IV (RRRRSQSPRRRRS; UniProt P03147 164-176, looked up, fragment)
[4]
  Activity against all of the tested bacteria and fungi: no activity

From article PMC3681751, “Identification of a Novel Antimicrobial Peptide from Human Hepatitis B Virus Core Protein Arginine-Rich Domain (ARD)” (PLoS Pathogens, 2013)
